Here are results for 1 molecule from ChEMBL document CHEMBL3108695, “Inhibitors of factor d may provide a treatment for age-related macular degeneration” (ACS Med Chem Lett, 2014).

In this test the target is Complement factor D (Homo sapiens, UniProt P00746). Put plainly: Inhibition of recombinant human factor D expressed in Escherichia coli using Z-Lys-thiobenzyl and 2,4-dinitrobenzenesulfonyl-fluoresceine as substrate preincubated for 1 hr followed by substrate addition by spectrofluorimetric analysis.
Complement factor D, sequence (P00746 whole entry): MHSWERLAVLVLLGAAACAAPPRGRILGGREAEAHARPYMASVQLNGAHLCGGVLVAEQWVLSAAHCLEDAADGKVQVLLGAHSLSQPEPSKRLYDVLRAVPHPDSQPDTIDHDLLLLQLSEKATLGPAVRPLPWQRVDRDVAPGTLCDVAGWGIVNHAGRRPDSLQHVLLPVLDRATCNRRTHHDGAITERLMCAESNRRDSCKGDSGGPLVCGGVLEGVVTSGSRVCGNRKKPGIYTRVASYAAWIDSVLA

Molecules are shown by their SMILES.

Take `NC(=O)c1nn(CC(=O)N2[C@@H]3C[C@@H]3C[C@H]2C(=O)Nc2cccc(Br)n2)c2cnc(CF)cc12`: the IC50 amounted to 2 nM.
